# Assay results published in patent US8969320B2, “Hyaluronic acid derivatives containing groups able to release NO” (Fidia Farmaceutici S.P.A., priority 2007, dated 2015).
# Experiment: Release Test: nitric oxide (NO) release profile by spectrophotometry (Griess test)
# Assay type: physicochemical
# Settings: 4 mg product in 2.5 ml Griess reagent
# Experimental: The nitric oxide (NO) release profile of the compounds of the invention was evaluated by spectrophotometry using the […]. The trend of NO release by the HA-Cys conjugate in S-nitroso form, prepared as described in example 13, is shown here by way of example. Briefly: 4 mg of the product is dissolved in 2.5 ml of Griess reagent in a UV-visible spectrophotometric cuvette. The solution is rapidly homogenised, placed in a double-beam spectrophotometer (Perkin Elmer Lambda 2), and the absorbance trend is measured at 540 nm over time against a blank consisting of Griess solution. The absorbance, i.e. the nitric oxide concentration, increases in the solution with an asymptotic trend, the plateau of which has not yet been reached 25 hrs after release. Assuming first-order kinetics, a decay constant amounting to 70 min^−1 is obtained.
substance,measurement,setting,value
HA-Cys-S-nitric Oxide p50 Derivative (750 kDa) [Example 13],"decay constant of NO release, assuming first-order kinetics",absorbance at 540 nm over time against Griess solution blank,70 min⁻¹
same,time after release at which the plateau of NO concentration (absorbance) has not yet been reached,"absorbance at 540 nm, asymptotic trend",> 25 h
